Results from US9518166B2, “Film forming auxiliary agent composition for emulsion resin” (ADEKA CORPORATION, priority 2013, dated 2016).

Legend:
Type in all cases: physicochemical
[1] = Test 2: long-term stability test, resin 1; parameters: key: ⊚: homogeneous solution; ◯: no separation, but solution was partially heterogeneous (still can be used); Δ: slight separation was confirmed; X: complete separation or sedimentation was confirmed; conditions: 5 mass % in resin 1, one week at 40° C.
Procedure: (§1) Inventive Products 1 to 14 and Comparative Products 1 to 11 were each compounded at 5 mass % with the test emulsion resins, 80 ml of each product obtained was introduced by 80 ml into a 100-ml screw pipe, closed with a lid and allowed to stay for a week in a thermostat at 40° C. The external appearance of the emulsion resins thereafter was determined according to the following criteria. • ⊚: homogeneous solution • ◯: no separation, but solution was partially heterogeneous (still can be used) • Δ: slight separation was confirmed • X: complete separation or sedimentation was confirmed <Test 3: Water Solubility Confirmation Test>

[2] = Test 2: long-term stability test, resin 2; parameters: key: ⊚: homogeneous solution; ◯: no separation, but solution was partially heterogeneous (still can be used); Δ: slight separation was confirmed; X: complete separation or sedimentation was confirmed; conditions: 5 mass % in resin 2, one week at 40° C.
Procedure: as §1

Boiling point = experiment: Boiling point

Compound | Test 2: long-term stability, external appearance [1] | Test 2: long-term stability, external appearance [2] | boiling point (Boiling point) [°C]
CCCCOCCO [Comparative Product 10, butyl cellosolve] | ⊚ | ⊚ | 171
CN1CCCC1=O [Comparative Product 11, N-methylpyrrolidone] | ⊚ | ⊚ | 202
